# Assay results published in US4206207A, “Use of 4-carboxy-phthalato(1,2-diaminocyclohexane)-platinum (II) and alkali metal salts thereof with cyclophosphamide in alleviating L1210 murine leukemia” (priority 1978, dated 1980).
# Where “and” joins values, the source holds several entries; their conditions need not be identical. Equal values may be shown once.
# Experiments:
# [1] = Renal Toxicity Screening Protocol, toxicity compared to NSC-119875; type: in vivo; conditions: for Body Weight Loss score / Clinical Chemistry - Blood Urea Nitrogen score / Clinical Chemistry - Creatinine score / Clinical Chemistry - Serum Glutamic Pyruvic Transaminase score / Hematology - Hematocrit score / Hematology - White Blood Cell score / Histopathology - Gastrointestinal score / Histopathology - Hematopoietic score / Histopathology - Lymphatic score / Histopathology - Renal score: relative to NSC-119875; for TOTAL SCORE: sum of the ten scores
# L1210 leukemia [2] = experiment: L1210 leukemia in BDF1 mice, ip treatment on Day 1 only; type: in vivo; conditions: for % increase in life span (% ILS): in 1% NaHCO3
# Description: The compound in 1% NaHCO3 solution was tested against the L1210 leukemia in BDF1 mice [10^6 cells given to mice on Day 0, treatment (ip) on Day 1 only] in laboratory and the following % increases in life span (%ILS) were noted: […]
# L1210 leukemia [3] = experiment: L1210 leukemia in mice, treatment delayed until Day 3, singly and in combination; type: in vivo, BDF1 mice; conditions: Day 3 treatment
# Description: The compound in 1% NaHCO3 solution was tested against the L1210 leukemia in BDF1 mice [10^6 cells given to mice on Day 0, treatment (ip) on Day 1 only] in laboratory and the following % increases in life span (%ILS) were noted:
# When treatment was delayed until Day 3, 5 mg/kg gave 51% ILS, 42% ILS and 39% ILS in three experiments.
# Lethality (LD50) in mice = conditions: mouse, in vivo
# L1210 leukemia [4] = experiment: NCI screen against L1210 leukemia, day 1, 5, 9 schedule; type: in vivo, murine
# Text: The compound was submitted to the Drug Development Branch of the National Cancer Institute and assigned NSC Number 271674. It was screened against the L1210 leukemia on a day 1, 5, 9 schedule and the following results were obtained: […]
# L1210 leukemia [5] = experiment: Second screener against L1210 leukemia, day 1, 5, 9 schedule; type: in vivo, murine
# Text: The compound was submitted to the Drug Development Branch of the National Cancer Institute and assigned NSC Number 271674. It was screened against the L1210 leukemia on a day 1, 5, 9 schedule and the following results were obtained:
# L1210 [6] = experiment: In vitro growth inhibition of L1210 cells; type: cell-based, murine
# Text: (§1) The ID50 refers to the concentration of test compound required to
# (§2) inhibit the growth of either the L1210 or L1210/DDP (NSC119875) resistant
# L1210/DDP = experiment: In vitro growth inhibition of L1210/DDP (NSC-119875 resistant) cells; type: cell-based, murine
# Text: as §1, §2
# P388 leukemia = experiment: In vivo activity against P388 leukemia; conditions: Days 1,5,9,13, NSC-119875 6.7 mg/kg, NSC-271674 20.0 mg/kg
# Text: (§3) Data are expressed as survival in days and as a percentage increase in […]
# P388/DDP = experiment: In vivo activity against P388/DDP leukemia with acquired resistance to NSC-119875; conditions: Days 1,5,9,13, NSC-119875 6.7 mg/kg, NSC-271674 20.0 mg/kg
# Text: P388/DDP refers to a tumor line with acquired resistance to NSC119875.
# as §3
# B16 melanoma = experiment: Mouse tumor panel: B16 melanoma (ip, survival time); type: in vivo; conditions: D1-9
# Description: (§4) NSC-271674 Against a Panel of a Mouse Tumors
# (§5) *Survival time (mean or median) assay
# (§6) Data are expressed as a percentage of the survival time in days or the
# (§7) tumor weights in mg of the treated mice divided by the corresponding
# (§8) values for the control mice. All testing was performed using both platinu
# (§9) compounds in the same experiment. The criteria for activity are as
# (§10) follows: confirmed activity (activity from two separate laboratories) of
# (§11) % T/C of 150 or more for survival systems and 10% or less for tumor weigh
# (§12) inhibition assays. Lower levels of activity such as a % T/C of 125 for
# (§13) survival systems and 42% for tumor weight inhibition assays are considere
# (§14) statistically significant.
# L1210 [7] = experiment: Mouse tumor panel: L1210 (ip, survival time); type: in vivo; conditions: D1-9
# Description: as §4, §5, §6, §7, §8, §9, §10, §11, §12, §13, §14
# Lewis lung = experiment: Mouse tumor panel: Lewis lung (iv, survival time); type: in vivo; conditions: D1-9
# Description: as §4, §5, §6, §7, §8, §9, §10, §11, §12, §13, §14
# CD8F1 mammary = experiment: Mouse tumor panel: CD8F1 mammary (sc, tumor weight inhibition); type: in vivo; conditions: Q7DX5
# Description: as §4
# (§15) **Tumor weight inhibition assay.
# as §6, §7, §8, §9, §10, §11, §12, §13, §14
# Colon #38 = experiment: Mouse tumor panel: Colon #38 (sc, tumor weight inhibition); type: in vivo; conditions: D2,9
# Description: as §4, §15, §6, §7, §8, §9, §10, §11, §12, §13, §14
# murine leukemia L1210 = experiment: Antileukemic activity in mice against murine leukemia L1210 (general statement); type: in vivo
# Text: Some previous platinum chelate compounds show dosage limitation due to renal impairment but the free carboxyl of the present composition offers a possible route of oral […] and absorption by the stomach.
# [8] = test system: strains of murine leukemia; experiment: Activity against strains of murine leukemia resistant to NSC 119875 (general statement); conditions: mouse, in vivo
# L1210 leukemia [9] = type: in vivo, mice; conditions: hydroxyurea alone, at least 1000 mg/kg
# Description: Compound Pt-307 was administered usually in a dosage regimen of 5-60 mg/kg of body weight. This was given as a single dose or on Days 1, 5, and 9 in the standard National Institutes of Health 10-day testing.
# CY was utilized at an optimum 50 mg/kg of body weight (range 25-75 mg/kg) preferably given at Day 3 in the 10-day testing. 5-FU was utilized at 75 mg/kg of body weight (range 50-100 mg/kg) at Day 3. HU was used in a high dosage of at least 1000 mg/kg of body weight (range 1000-1500 mg/kg). The 5-FU and the HU were utilized as ternary compositions only with cyclophosphamide and the platinum compound.
# Hydroxyurea is utilized in combination therapy at a high dosage of at least 1000 mg/kg of body weight (range 1000-1500 mg/kg).
# [10] = 5 mg/kg + cyclophosphamide 50 mg/kg + 5-fluorouracil 75 mg/kg
# [11] = 5 mg/kg + cyclophosphamide 50 mg/kg, two experiments
smiles,measurement,setting,value
NC1CCCCC1N.O=S(=O)([O-])[O-].[Pt+2] (stereo not drawn) [NSC-250427],Body Weight Loss score,[1],2
same,Clinical Chemistry - Blood Urea Nitrogen score,[1],1
same,Clinical Chemistry - Creatinine score,[1],1
same,Clinical Chemistry - Serum Glutamic Pyruvic Transaminase score,[1],5
same,Hematology - Hematocrit score,[1],3
same,Hematology - White Blood Cell score,[1],3
same,Histopathology - Gastrointestinal score,[1],1
same,Histopathology - Hematopoietic score,[1],4
same,Histopathology - Lymphatic score,[1],2
same,Histopathology - Renal score,[1],2
same,TOTAL SCORE,[1],24
"CC(C)N.CC(C)N.[Cl-].[Cl-].[OH-].[OH-].[Pt] [NSC-256927, bisisopropylamine-cis-dichloro-transdihydroxy]",Body Weight Loss score,[1],2
same,Clinical Chemistry - Blood Urea Nitrogen score,[1],1
same,Clinical Chemistry - Creatinine score,[1],1
same,Clinical Chemistry - Serum Glutamic Pyruvic Transaminase score,[1],3
same,Hematology - Hematocrit score,[1],4
same,Hematology - White Blood Cell score,[1],3
same,Histopathology - Gastrointestinal score,[1],1
same,Histopathology - Hematopoietic score,[1],4
same,Histopathology - Lymphatic score,[1],4
same,Histopathology - Renal score,[1],2
same,TOTAL SCORE,[1],25
"N[C@@H]1CCCC[C@H]1N.O=C([O-])c1ccc(C(=O)[O-])c(C(=O)[O-])c1.[H+].[Pt+2] [NSC-271674, 4-Carboxyphthalato(1,2-diaminocyclohexane)platinum(II)]",% increase in life span (% ILS),L1210 leukemia [2]; 5 mg/kg ip,70%
same,% increase in life span (% ILS),L1210 leukemia [2]; 10 mg/kg ip,118%
same,% increase in life span (% ILS),L1210 leukemia [2]; 20 mg/kg ip,119%
same,% increase in life span (% ILS),L1210 leukemia [2]; 25 mg/kg ip,139%
same,% increase in life span (% ILS),L1210 leukemia [2]; 40 mg/kg ip,232%
same,mice survived > 60 days,L1210 leukemia [2]; 50 mg/kg ip,1 of 8
same,% increase in life span (% ILS),L1210 leukemia [2]; 50 mg/kg ip,288%
same,mice survived > 60 days,L1210 leukemia [2]; 60 mg/kg ip,1 of 8
same,% increase in life span (% ILS),L1210 leukemia [2]; 60 mg/kg ip,174%
same,% ILS,L1210 leukemia [3]; [10],673%
same,>60 day survivors,L1210 leukemia [3]; [10],8 of 10
same,% ILS,L1210 leukemia [3]; [11],416% and 217%
same,>60 day survivors,L1210 leukemia [3]; [11],3 of 10 and no
same,% ILS,"L1210 leukemia [3]; 5 mg/kg alone, three experiments",51% and 42% and 39%
same,approximate LD50,Lethality (LD50) in mice,~75 mg/kg
same,% ILS,L1210 leukemia [4]; 0.78 mg/kg,27%
same,Cures (of 10),L1210 leukemia [4]; 0.78 mg/kg,0 of 10
same,% ILS,L1210 leukemia [4]; 1.56 mg/kg,33%
same,Cures (of 10),L1210 leukemia [4]; 1.56 mg/kg,0 of 10
same,% ILS,L1210 leukemia [4]; 3.13 mg/kg,46%
same,Cures (of 10),L1210 leukemia [4]; 3.13 mg/kg,0 of 10
same,% ILS,L1210 leukemia [4]; 6.25 mg/kg,163%
same,Cures (of 10),L1210 leukemia [4]; 6.25 mg/kg,1 of 10
same,% ILS,L1210 leukemia [4]; 12.5 mg/kg,191%
same,Cures (of 10),L1210 leukemia [4]; 12.5 mg/kg,2 of 10
same,% ILS,L1210 leukemia [4]; 25 mg/kg,344%
same,Cures (of 10),L1210 leukemia [4]; 25 mg/kg,5 of 10
same,% ILS,L1210 leukemia [5]; 0.78 mg/kg,19%
same,% ILS,L1210 leukemia [5]; 1.56 mg/kg,19%
same,% ILS,L1210 leukemia [5]; 3.13 mg/kg,41%
same,% ILS,L1210 leukemia [5]; 6.25 mg/kg,58%
same,questionably toxic deaths,L1210 leukemia [5]; 6.25 mg/kg,2 deaths
same,% ILS,L1210 leukemia [5]; 12.5 mg/kg,147%
same,% ILS,L1210 leukemia [5]; 25 mg/kg,86%
same,cures,L1210 leukemia [5]; all doses,No cures
same,ID50 (concentration required to inhibit the growth of cells by 50 percent),L1210 [6],0.30 µg/mL
same,ID50 (concentration required to inhibit the growth of cells by 50 percent),L1210/DDP,0.23 µg/mL
same,% ILS,P388 leukemia,56%
same,Survival,P388 leukemia,20.7 days
same,% ILS,P388/DDP,201%
same,Survival,P388/DDP,33.3 days
same,% T/C (survival time) at optimal dose,"B16 melanoma; B16 first line, optimal dose NSC-119875 2, NSC-271674 6.25 mg/kg/inj",171%
same,% T/C (survival time) at optimal dose,"B16 melanoma; B16 second line, optimal dose NSC-119875 1, NSC-271674 1.56 mg/kg/inj",159%
same,% T/C (survival time) at optimal dose,"L1210 [7]; L1210 first line, optimal dose NSC-119875 2, NSC-271674 0.78 mg/kg/inj",174%
same,% T/C (survival time) at optimal dose,"L1210 [7]; L1210 second line, optimal dose NSC-119875 2, NSC-271674 1.56 mg/kg/inj",325%
same,% T/C (survival time) at optimal dose,"Lewis lung; Lewis lung first line, optimal dose NSC-119875 2, NSC-271674 3.12 mg/kg/inj",122%
same,% T/C (survival time) at optimal dose,"Lewis lung; Lewis lung second line, optimal dose NSC-119875 2, NSC-271674 6.25 mg/kg/inj",127%
same,% T/C (tumor weight) at optimal dose,"CD8F1 mammary; CD8F1 first line, optimal dose NSC-119875 8, NSC-271674 6.25 mg/kg/inj",11%
same,% T/C (tumor weight) at optimal dose,"CD8F1 mammary; CD8F1 second line, optimal dose NSC-119875 8, NSC-271674 25 mg/kg/inj",25%
same,% T/C (tumor weight) at optimal dose,"Colon #38; Colon #38 first line, optimal dose NSC-119875 8, NSC-271674 12.5 mg/kg/inj",50%
same,% T/C (tumor weight) at optimal dose,"Colon #38; Colon #38 second line, optimal dose NSC-119875 16, NSC-271674 50 mg/kg/inj",33%
same,renal toxicity (in words),[1]; against NSC 119875,superior results in testing for renal toxicity
same,Body Weight Loss score,[1],3
same,Clinical Chemistry - Blood Urea Nitrogen score,[1],1
same,Clinical Chemistry - Creatinine score,[1],1
same,Clinical Chemistry - Serum Glutamic Pyruvic Transaminase score,[1],3
same,Hematology - Hematocrit score,[1],3
same,Hematology - White Blood Cell score,[1],3
same,Histopathology - Gastrointestinal score,[1],1
same,Histopathology - Hematopoietic score,[1],5
same,Histopathology - Lymphatic score,[1],1
same,Histopathology - Renal score,[1],2
same,TOTAL SCORE,[1],23
same,effect of combination with cyclophosphamide (in words),"murine leukemia L1210; cyclophosphamide 50 mg/kg, optionally 5-FU 75 mg/kg or HU 1000 mg/kg",potentiated
same,antileukemic activity (in words),murine leukemia L1210; mice,antileukemic activity
same,effective dosage,murine leukemia L1210; mice,5-60 mg/kg of body weight
same,activity against NSC 119875-exhausted strains (in words),[8],appears to be active
NC(=O)NO [hydroxyurea],efficacy against L1210 (in words),L1210 leukemia [9],only minimally effective
